Laboratory results from patent publication US20260042764A1, “COMPOSITIONS AND METHODS FOR INHIBITION OF KRAS” (TheRas, Inc., priority 2022, published 2026).

target: T1, Avi-KRAS G12R (1-169) GppNHp/RAF1 RBD-3xFLAG (52-151) (Homo sapiens, UniProt P01116, G12R); experiment: Raf1-KRAS G12R-GppNHP disruption HTRF assay (Biological Example 1); assay type: binding; conditions: KRAS G12R-GppNHp/RAF1 RBD HTRF
T1 construct: Avi-KRAS G12R (1-169)
Outline: (§1)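 Using HTRF, the loss of KRAS–effector RAF1 complex was quantified in 50 mM Tris pH 7.5 buffer with 100 mM NaCl and 0.1% BSA. The protein step and reagent step ran 1 h each at room temperature. Activity normalized with DMSO taken as 100%.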

T1 sequence (P01116 1-169 isoform P01116-2 G12R): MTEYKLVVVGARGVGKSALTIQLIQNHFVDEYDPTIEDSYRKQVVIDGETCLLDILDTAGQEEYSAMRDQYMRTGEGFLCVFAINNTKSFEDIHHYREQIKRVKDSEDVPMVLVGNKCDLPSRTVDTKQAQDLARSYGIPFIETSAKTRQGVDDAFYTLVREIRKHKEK

Structure (SMILES) | IC50 [nM]
CCN(c1nc(OC[C@@]23CCCN2C[C@H](F)C3)nc2c(F)c(-c3ccc(F)c4sc(N)c(C#N)c34)c(C(F)(F)F)cc12)[C@@H]1CCN(C(=O)C(C)C)C1 [Compound 328] | 100 to 1000
CCN(c1nc(OC[C@@]23CCCN2C[C@H](F)C3)nc2c(F)c(-c3ccc(F)c4sc(N)c(C#N)c34)c(C(F)(F)F)cc12)[C@@H]1CCN(C(=O)C2CC2)C1 [Compound 329] | 100 to 1000
CCN(c1nc(OC[C@@]23CCCN2C[C@H](F)C3)nc2c(F)c(-c3ccc(F)c4sc(N)c(C#N)c34)c(C(F)(F)F)cc12)[C@H]1CCN(C(=O)C2CC2)C1 [Compound 331] | < 100
CCN(c1nc(OC[C@@]23CCCN2C[C@H](F)C3)nc2c(F)c(-c3ccc(F)c4sc(N)c(C#N)c34)c(C(F)(F)F)cc12)[C@H]1CCN(C(=O)C(C)C)C1 [Compound 332] | < 100
CN(C)C(=O)c1cc2n(n1)CCN(c1nc(OC[C@@]34CCCN3C[C@H](F)C4)nc3c(F)c(-c4ccc(F)c5sc(N)c(C#N)c45)c(C(F)(F)F)cc13)C2 [Compound 355] | 100 to 1000
[2H]C1([2H])O[C@@H]2C[C@H]1N(c1nc(OC[C@@]34CCCN3C[C@H](F)C4)nc3c(F)c(-c4ccc(F)c5sc(N)c(C#N)c45)c(C(F)(F)F)cc13)C2 [Compound 371] | 100 to 1000

target: T2, Avi-KRAS G12V (1-169) GppNHp/RAF1 RBD-3xFLAG (52-151) (Homo sapiens, UniProt P01116, G12V); experiment: Raf1-KRAS G12V-GppNHP disruption HTRF assay (Biological Example 1); assay type: binding; conditions: KRAS G12V-GppNHp/RAF1 RBD HTRF
T2 construct: Avi-KRAS G12V (1-169)
T2 sequence (P01116 1-169 isoform P01116-2 G12V): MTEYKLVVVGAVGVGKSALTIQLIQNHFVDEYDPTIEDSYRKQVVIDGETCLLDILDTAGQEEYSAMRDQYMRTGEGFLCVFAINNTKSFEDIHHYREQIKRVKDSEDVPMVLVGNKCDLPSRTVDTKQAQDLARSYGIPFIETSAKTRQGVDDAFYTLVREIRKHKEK
Outline: as §1

Structure (SMILES) | IC50 [nM]
CCN(c1nc(OC[C@@]23CCCN2C[C@H](F)C3)nc2c(F)c(-c3ccc(F)c4sc(N)c(C#N)c34)c(C(F)(F)F)cc12)[C@@H]1CCN(C(=O)C(C)C)C1 [Compound 328] | 100 to 1000
CCN(c1nc(OC[C@@]23CCCN2C[C@H](F)C3)nc2c(F)c(-c3ccc(F)c4sc(N)c(C#N)c34)c(C(F)(F)F)cc12)[C@@H]1CCN(C(=O)C2CC2)C1 [Compound 329] | 100 to 1000
CCN(c1nc(OC[C@@]23CCCN2C[C@H](F)C3)nc2c(F)c(-c3ccc(F)c4sc(N)c(C#N)c34)c(C(F)(F)F)cc12)[C@H]1CCN(C(=O)C2CC2)C1 [Compound 331] | 100 to 1000
CCN(c1nc(OC[C@@]23CCCN2C[C@H](F)C3)nc2c(F)c(-c3ccc(F)c4sc(N)c(C#N)c34)c(C(F)(F)F)cc12)[C@H]1CCN(C(=O)C(C)C)C1 [Compound 332] | 100 to 1000
CN(C)C(=O)c1cc2n(n1)CCN(c1nc(OC[C@@]34CCCN3C[C@H](F)C4)nc3c(F)c(-c4ccc(F)c5sc(N)c(C#N)c45)c(C(F)(F)F)cc13)C2 [Compound 355] | 100 to 1000
[2H]C1([2H])O[C@@H]2C[C@H]1N(c1nc(OC[C@@]34CCCN3C[C@H](F)C4)nc3c(F)c(-c4ccc(F)c5sc(N)c(C#N)c45)c(C(F)(F)F)cc13)C2 [Compound 371] | 100 to 1000

test system: GP2d cells (KRAS G12D); experiment: Cell-based pERK HTRF assay in GP2d cell (Biological Example 2); conditions: GP2d, GP2d (KRAS G12D) cells
Outline: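 60 min compound, 0.25% DMSO, 9-pt half-log curve from 1 μM or 100 nM; DMEM/10% FBS.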

Structure (SMILES) | IC50 [nM]
CCN(c1nc(OC[C@@]23CCCN2C[C@H](F)C3)nc2c(F)c(-c3ccc(F)c4sc(N)c(C#N)c34)c(C(F)(F)F)cc12)[C@@H]1CCN(C(=O)C(C)C)C1 [Compound 328] | < 100
CCN(c1nc(OC[C@@]23CCCN2C[C@H](F)C3)nc2c(F)c(-c3ccc(F)c4sc(N)c(C#N)c34)c(C(F)(F)F)cc12)[C@@H]1CCN(C(=O)C2CC2)C1 [Compound 329] | < 100
CCN(c1nc(OC[C@@]23CCCN2C[C@H](F)C3)nc2c(F)c(-c3ccc(F)c4sc(N)c(C#N)c34)c(C(F)(F)F)cc12)[C@H]1CCN(C(=O)C2CC2)C1 [Compound 331] | < 100
CCN(c1nc(OC[C@@]23CCCN2C[C@H](F)C3)nc2c(F)c(-c3ccc(F)c4sc(N)c(C#N)c34)c(C(F)(F)F)cc12)[C@H]1CCN(C(=O)C(C)C)C1 [Compound 332] | < 100
CN(C)C(=O)c1cc2n(n1)CCN(c1nc(OC[C@@]34CCCN3C[C@H](F)C4)nc3c(F)c(-c4ccc(F)c5sc(N)c(C#N)c45)c(C(F)(F)F)cc13)C2 [Compound 355] | < 100
[2H]C1([2H])O[C@@H]2C[C@H]1N(c1nc(OC[C@@]34CCCN3C[C@H](F)C4)nc3c(F)c(-c4ccc(F)c5sc(N)c(C#N)c45)c(C(F)(F)F)cc13)C2 [Compound 371] | < 100

same assay, conditions: GP2d, GP2d (KRAS G12D) cells, pERK HTRF

Structure (SMILES) | IC50 [nM]
CCN(c1nc(OC[C@@]23CCCN2C[C@H](F)C3)nc2c(F)c(-c3ccc(F)c4sc(N)c(C#N)c34)c(C(F)(F)F)cc12)[C@@H]1CCN(C(=O)C(C)C)C1 [Compound 328] | < 100
CCN(c1nc(OC[C@@]23CCCN2C[C@H](F)C3)nc2c(F)c(-c3ccc(F)c4sc(N)c(C#N)c34)c(C(F)(F)F)cc12)[C@@H]1CCN(C(=O)C2CC2)C1 [Compound 329] | < 100
CCN(c1nc(OC[C@@]23CCCN2C[C@H](F)C3)nc2c(F)c(-c3ccc(F)c4sc(N)c(C#N)c34)c(C(F)(F)F)cc12)[C@H]1CCN(C(=O)C2CC2)C1 [Compound 331] | < 100
CCN(c1nc(OC[C@@]23CCCN2C[C@H](F)C3)nc2c(F)c(-c3ccc(F)c4sc(N)c(C#N)c34)c(C(F)(F)F)cc12)[C@H]1CCN(C(=O)C(C)C)C1 [Compound 332] | < 100
CN(C)C(=O)c1cc2n(n1)CCN(c1nc(OC[C@@]34CCCN3C[C@H](F)C4)nc3c(F)c(-c4ccc(F)c5sc(N)c(C#N)c45)c(C(F)(F)F)cc13)C2 [Compound 355] | < 100
[2H]C1([2H])O[C@@H]2C[C@H]1N(c1nc(OC[C@@]34CCCN3C[C@H](F)C4)nc3c(F)c(-c4ccc(F)c5sc(N)c(C#N)c45)c(C(F)(F)F)cc13)C2 [Compound 371] | < 100

target: T3, Avi-KRAS G12D (2-169) GTP/RAF1 RBD-3xFLAG (51-131) (Homo sapiens, UniProt P01116, G12D); experiment: Raf1-KRAS G12D-GTP disruption HTRF assay (Biological Example 3); assay type: binding; conditions: KRAS G12D, GTP-loaded
T3 construct: Avi-KRAS G12D (2-169)
T3 sequence (P01116 2-169 isoform P01116-2 G12D): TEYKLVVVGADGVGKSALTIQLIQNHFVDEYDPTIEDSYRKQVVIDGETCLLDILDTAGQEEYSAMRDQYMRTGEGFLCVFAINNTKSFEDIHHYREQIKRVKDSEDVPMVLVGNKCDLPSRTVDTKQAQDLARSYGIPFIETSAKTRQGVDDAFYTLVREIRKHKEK
Outline: (§2)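 50 nM Avi-KRAS (2-169) GTP/RAF1 RBD complex; 75 nM RBD-Avi; pH 7.5 Tris buffer, 10% DMSO; cpd 30 μM top, 3x, 10 pts; 1 h RT, 700 rpm; HTRF, % of DMSO.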

Structure (SMILES) | IC50 [nM]
CCN(c1nc(OC[C@@]23CCCN2C[C@H](F)C3)nc2c(F)c(-c3ccc(F)c4sc(N)c(C#N)c34)c(C(F)(F)F)cc12)[C@@H]1CCN(C(=O)C(C)C)C1 [Compound 328] | 100 to 1000
CCN(c1nc(OC[C@@]23CCCN2C[C@H](F)C3)nc2c(F)c(-c3ccc(F)c4sc(N)c(C#N)c34)c(C(F)(F)F)cc12)[C@@H]1CCN(C(=O)C2CC2)C1 [Compound 329] | 100 to 1000
CCN(c1nc(OC[C@@]23CCCN2C[C@H](F)C3)nc2c(F)c(-c3ccc(F)c4sc(N)c(C#N)c34)c(C(F)(F)F)cc12)[C@H]1CCN(C(=O)C2CC2)C1 [Compound 331] | 100 to 1000
CCN(c1nc(OC[C@@]23CCCN2C[C@H](F)C3)nc2c(F)c(-c3ccc(F)c4sc(N)c(C#N)c34)c(C(F)(F)F)cc12)[C@H]1CCN(C(=O)C(C)C)C1 [Compound 332] | 100 to 1000
CN(C)C(=O)c1cc2n(n1)CCN(c1nc(OC[C@@]34CCCN3C[C@H](F)C4)nc3c(F)c(-c4ccc(F)c5sc(N)c(C#N)c45)c(C(F)(F)F)cc13)C2 [Compound 355] | 100 to 1000
[2H]C1([2H])O[C@@H]2C[C@H]1N(c1nc(OC[C@@]34CCCN3C[C@H](F)C4)nc3c(F)c(-c4ccc(F)c5sc(N)c(C#N)c45)c(C(F)(F)F)cc13)C2 [Compound 371] | 100 to 1000

target: T4, Avi-KRAS G12V (2-169) GTP/RAF1 RBD-3xFLAG (51-131) (Homo sapiens, UniProt P01116, G12V); experiment: Raf1-KRAS G12V-GTP disruption HTRF assay (Biological Example 3); assay type: binding; conditions: KRAS G12V, GTP-loaded
T4 construct: Avi-KRAS G12V (2-169)
T4 sequence (P01116 2-169 isoform P01116-2 G12V): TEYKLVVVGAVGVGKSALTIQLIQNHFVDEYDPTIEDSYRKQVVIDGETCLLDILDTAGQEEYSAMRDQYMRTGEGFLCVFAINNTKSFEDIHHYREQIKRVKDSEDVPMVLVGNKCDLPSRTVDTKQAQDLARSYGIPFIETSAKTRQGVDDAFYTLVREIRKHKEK
Outline: as §2

Structure (SMILES) | IC50 [nM]
CCN(c1nc(OC[C@@]23CCCN2C[C@H](F)C3)nc2c(F)c(-c3ccc(F)c4sc(N)c(C#N)c34)c(C(F)(F)F)cc12)[C@@H]1CCN(C(=O)C(C)C)C1 [Compound 328] | 1000 to 10000
CCN(c1nc(OC[C@@]23CCCN2C[C@H](F)C3)nc2c(F)c(-c3ccc(F)c4sc(N)c(C#N)c34)c(C(F)(F)F)cc12)[C@@H]1CCN(C(=O)C2CC2)C1 [Compound 329] | 100 to 1000
CCN(c1nc(OC[C@@]23CCCN2C[C@H](F)C3)nc2c(F)c(-c3ccc(F)c4sc(N)c(C#N)c34)c(C(F)(F)F)cc12)[C@H]1CCN(C(=O)C2CC2)C1 [Compound 331] | 100 to 1000
CCN(c1nc(OC[C@@]23CCCN2C[C@H](F)C3)nc2c(F)c(-c3ccc(F)c4sc(N)c(C#N)c34)c(C(F)(F)F)cc12)[C@H]1CCN(C(=O)C(C)C)C1 [Compound 332] | 100 to 1000
CN(C)C(=O)c1cc2n(n1)CCN(c1nc(OC[C@@]34CCCN3C[C@H](F)C4)nc3c(F)c(-c4ccc(F)c5sc(N)c(C#N)c45)c(C(F)(F)F)cc13)C2 [Compound 355] | 100 to 1000
[2H]C1([2H])O[C@@H]2C[C@H]1N(c1nc(OC[C@@]34CCCN3C[C@H](F)C4)nc3c(F)c(-c4ccc(F)c5sc(N)c(C#N)c45)c(C(F)(F)F)cc13)C2 [Compound 371] | 1000 to 10000

target: T5, Avi-KRAS WT (2-169) GTP/RAF1 RBD-3xFLAG (51-131) (Homo sapiens, UniProt P01116); experiment: Raf1-KRAS WT-GTP disruption HTRF assay (Biological Example 3); assay type: binding; conditions: KRAS WT, GTP-loaded
T5 construct: Avi-KRAS WT (2-169)
T5 sequence (P01116 2-169 isoform P01116-2): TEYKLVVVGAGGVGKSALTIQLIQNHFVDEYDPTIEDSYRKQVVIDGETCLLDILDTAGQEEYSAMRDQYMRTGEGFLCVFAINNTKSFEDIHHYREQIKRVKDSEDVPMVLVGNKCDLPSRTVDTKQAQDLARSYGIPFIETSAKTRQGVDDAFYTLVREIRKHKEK
Outline: as §2

Structure (SMILES) | IC50 [nM]
CCN(c1nc(OC[C@@]23CCCN2C[C@H](F)C3)nc2c(F)c(-c3ccc(F)c4sc(N)c(C#N)c34)c(C(F)(F)F)cc12)[C@@H]1CCN(C(=O)C(C)C)C1 [Compound 328] | 100 to 1000
CCN(c1nc(OC[C@@]23CCCN2C[C@H](F)C3)nc2c(F)c(-c3ccc(F)c4sc(N)c(C#N)c34)c(C(F)(F)F)cc12)[C@@H]1CCN(C(=O)C2CC2)C1 [Compound 329] | 100 to 1000
CCN(c1nc(OC[C@@]23CCCN2C[C@H](F)C3)nc2c(F)c(-c3ccc(F)c4sc(N)c(C#N)c34)c(C(F)(F)F)cc12)[C@H]1CCN(C(=O)C2CC2)C1 [Compound 331] | 100 to 1000
CCN(c1nc(OC[C@@]23CCCN2C[C@H](F)C3)nc2c(F)c(-c3ccc(F)c4sc(N)c(C#N)c34)c(C(F)(F)F)cc12)[C@H]1CCN(C(=O)C(C)C)C1 [Compound 332] | 100 to 1000
CN(C)C(=O)c1cc2n(n1)CCN(c1nc(OC[C@@]34CCCN3C[C@H](F)C4)nc3c(F)c(-c4ccc(F)c5sc(N)c(C#N)c45)c(C(F)(F)F)cc13)C2 [Compound 355] | 1000 to 10000
[2H]C1([2H])O[C@@H]2C[C@H]1N(c1nc(OC[C@@]34CCCN3C[C@H](F)C4)nc3c(F)c(-c4ccc(F)c5sc(N)c(C#N)c45)c(C(F)(F)F)cc13)C2 [Compound 371] | 100 to 1000
